These results are taken from patent publication US20250188092A1, “RIFAMYCIN ANALOGS” (THE REGENTS OF THE UNIVERSITY OF MICHIGAN, priority 2021, published 2025).

The test system of one data set is MTB H37Rv ATCC 27294. The experiment in a line: MIC, microplate Alamar Blue assay (MABA). The class given is cell-based, Mycobacterium tuberculosis. The following applies: for MIC90: Mycobacterium tuberculosis, MTB H37Rv ATCC 27294, microplate Alamar Blue assay, lowest concentration giving ≥90% reduction in fluorescence.
A further data set concerns DPX2 cells. The following applies: for DPX2 Viability @ 6.25 μM: 24 h; for DPX2 Viability @ 25 μM: human.
In the next data set the test system is VERO cells (ATCC CRL-81). The data set is described as follows: Vero cell toxicity. The class given is cell-based. Conditions: Chlorocebus sabaeus, Vero; 72 hours exposure. How it is done: Cytotoxicity for a mammalian cell line was determined by exposing VERO cells (ATCC CRL-81) to serial dilutions of test compounds for 72 hours, followed by addition of resazurin and measurement of fluorescence after 4 hours incubation (Choules, et al., Antimnicrob. Agents Chemother. 2019, 63, e02204-02218).

≈ marks a conversion by molar mass, not a printed value. Where only a bound is given, the exact number is not on record here.

As a reminder, the MIC90 is an inhibitory concentration at the 90% level, which refers to growth in some studies and to a panel of isolates in others. Read a low MIC90 as greater potency. One may read the IC50 as the concentration that inhibits the measured activity by half. A high value points to a need for much substance. `CO[C@H]1/C=C/O[C@@]2(C)Oc3c(C)c(O)c4c(=O)c(c5oc6cc(N7CCC(C(=O)O)CC7)cc(C)c6nc-5c4c3C2=O)NC(=O)/C(C)=C\C=C\[C@H](C)[C@H](O)[C@@H](C)[C@@H](O)[C@@H](C)[C@H](OC(C)=O)[C@@H]1C` [Compound 29f, 1-[(7S,9E,11S,12R,13S,14R,15R,16R,17S,18S,19E,21Z)-13-(acetyloxy)-2,15,17-trihydroxy-11-methoxy-3,7,12,14,16,18,22,32-octamethyl-6,23,37-trioxo-8,27,38-trioxa-24,34-diazahexacyclo-[23.11.1.1^4,7.0^5,36.0^26,35.0^28,33]octatriaconta-1,3,5(36)9,19,21,25,28,30,32,34-undecaen-30-yl]piperidine-4-carboxylic acid]: in the data set on MTB H37Rv ATCC 27294, the “MIC90 MABA Rel to RMP” value worked out at 8.9 and the MIC90 was 0.238 µM (≈ 0.22 µg/mL). Also, in the data set with DPX2 cells, the “DPX2 Viability @ 6.25 μM” value came out at 126% and the “DPX2 Viability @ 25 μM” value is listed as 131%. Besides, in the data set with VERO cells (ATCC CRL-81), the IC50 was above 10 µM.

For `CO[C@H]1/C=C/O[C@@]2(C)Oc3c(C)c(O)c4c(=O)c(c5oc6cc(N7CCOC(CN(C)C)C7)cc(OCc7ccc(CN8CCOCC8)cc7)c6nc-5c4c3C2=O)NC(=O)/C(C)=C\C=C\[C@H](C)[C@H](O)[C@@H](C)[C@@H](O)[C@@H](C)[C@H](OC(C)=O)[C@@H]1C` (stereo partly drawn) [Compound 17o, (7S,9E,11S,12R,13S,14R,15R,16R,17S,18S,19E,21Z)-30-{2-[(dimethylamino)methyl]morpholin-4-yl}-2,15,17-trihydroxy-11-methoxy-3,7,12,14,16,18,22-heptamethyl-32-{[4-(morpholin-4-ylmethyl)phenyl]methoxy}-6,23,37-trioxo-8,27,38-trioxa-24,34-diazahexacyclo[23.11.1.1^4,7.0^5,36.0^26,35.0^28,33]octatriaconta-1,3,5(36)9,19,21,25,28,30,32,34-undecaen-13-yl acetate], in the data set with MTB H37Rv ATCC 27294, the “MIC90 MABA Rel to RMP” value stood at 1.1 and the MIC90 was 0.055 µM. Besides, in the data set on DPX2 cells, the “DPX2 Viability @ 6.25 μM” value was determined as 96% and the “DPX2 Viability @ 25 μM” value is reported as 42%. The same molecule displayed an IC50 in the data set with VERO cells (ATCC CRL-81) above 10 µM.

`CO[C@H]1/C=C/O[C@@]2(C)Oc3c(C)c(O)c4c(=O)c(c5oc6cccc(OCc7ccc(CN8CCN(C)CC8)cc7)c6nc-5c4c3C2=O)NC(=O)/C(C)=C\C=C\[C@H](C)[C@H](O)[C@@H](C)[C@@H](O)[C@@H](C)[C@H](OC(C)=O)[C@@H]1C` [Compound 16e, (7S,9E,11S,12R,13S,14R,15R,16R,17S,18S,19E,21Z)-2,15,17-trihydroxy-11-methoxy-3,7,12,14,16,18,22-heptamethyl-32-({4-[(4-methylpiperazin-1-yl)methyl]phenyl}methoxy)-6,23,37-trioxo-8,27,38-trioxa-24,34-diazahexacyclo[23.11.1.1^4,7.0^5,36.0^26,35.0^28,33]octatriaconta-1,3,5(36)9,19,21,25,28,30,32,34-undecaen-13-yl acetate]: in the data set with MTB H37Rv ATCC 27294, the “MIC90 MABA Rel to RMP” value is recorded as 0.16 and the MIC90 came to 0.0064 µM. Further, in the data set on DPX2 cells, the “DPX2 Viability @ 6.25 μM” value was 63% and the “DPX2 Viability @ 25 μM” value is 41%. The molecule further returned a concentration for half-maximal inhibition (IC50) in the data set with VERO cells (ATCC CRL-81) above 10 µM.

In the case of `CO[C@H]1/C=C/O[C@@]2(C)Oc3c(C)c(O)c4c(=O)c(c5oc6cc(N7CCN(CC(C)C)CC7)cc(OCc7ccc(CN8CCN(C)CC8)cc7)c6nc-5c4c3C2=O)NC(=O)/C(C)=C\C=C\[C@H](C)[C@H](O)[C@@H](C)[C@@H](O)[C@@H](C)[C@H](OC(C)=O)[C@@H]1C` [Compound 17p, (7S,9E,11S,12R,13S,14R,15R,16R,17S,18S,19E,21Z)-2,15,17-trihydroxy-11-methoxy-3,7,12,14,16,18,22-heptamethyl-32-({4-[(4-methylpiperazin-1-yl)methyl]phenyl}methoxy)-30-[4-(2-methylpropyl)piperazin-1-yl]-6,23,37-trioxo-8,27,38-trioxa-24,34-diazahexacyclo-[23.11.1.1^4,7.0^5,36.0^26,35.0^28,33]octatriaconta-1,3,5(36)9,19,21,25,28,30,32,34-undecaen-13-yl acetate], in the data set with MTB H37Rv ATCC 27294, the MIC90 is 0.0094 µM. In the data set on DPX2 cells, the “DPX2 Viability @ 6.25 μM” value is on record as 116% and the “DPX2 Viability @ 25 μM” value is reported as 80%. This molecule gave an IC50 in the data set with VERO cells (ATCC CRL-81) above 10 µM.
